“Also recorded” adds a separate entry of the source. Square brackets hold non-standard residues; d marks the D form. Peptide text beside a SMILES is read from it. Aib = CC(C)(N)C(=O)O; Ahx = NCCCCCC(=O)O
What was measured:
[1] = test system: Huh 7 cells; conditions: 10 μM, 24 h, Annexin V-PI FACS
Procedure: Viable cells, early apoptotic cells, necrotic cells, late apoptotic cells were represented by Q4, Q3, Q2 and Q1 respectively.
(§1) The apoptosis assay was performed according to the manufacturer’s instructions using an Annexin V: Fluorescein Isothiocyanate (FITC) Apoptosis Detection Kit I (BD Pharmingen™). Briefly, Huh 7 or HUVEC cells were seeded in a 12-well plate and allowed to grow for 24 h in medium with 10% FBS. Then, the cells were treated with the different peptides in medium with 5% FBS for 24 h’ incubation. The cells were harvested with 0.25% trypsin/EDTA, washed twice with PBS and suspended in 1 × binding buffer. The suspended cells were treated with FITC-labeled Annexin V and propidium iodide (PI) as the protocol indicated and then analyzed by flow cytometry to determine the apoptotic cells. The cells with positive fluorescence intensity signals for both FITC and PI were used for the apoptotic cell count.

[2] = test system: HUVEC cells with high expression of VEGFR; experiment: Cell competitive binding (cell affinity) assay by FACS, HUVEC; assay type: cell-based, human; conditions: QR-KLU 0, 2.5, 5, 10, 20 μM pre-incubated 30 min at 37 °C, then 10 μM FAM-QR for 4 h
Procedure: (§2) We then performed cell competitive binding assay to evaluate the affinity of the peptide conjugate to endothelial cell HUVEC with high expression of VEGFR [29]. FAM-labeled VEGF125−136 peptide QR was cultured with HUVEC cells for 4 h and then cellular penetration ability was tested by FACS. […] To further confirm our result, we then used HT29 cells to repeat this assay as HT29 cells are reported with low expression of VEGFR [29].
(§3) Fig. 2 The cell affinity of QR-KLU with different cell lines. Cell penetration of peptide QR-KLU with HUVEC cells (A) and HT29 cells (B). The cells were respectively treated with PBS, 10 μM FAM-QR + 0 μM QR-KLU, 10 μM FAM-QR + 2.5 μM QR-KLU, 10 μM FAM-QR + 5 μM QR-KLU, 10 μM FAM-QR + 10 μM QR-KLU, 10 μM FAM-QR + 20 μM QR-KLU. C The median fluorescence of HUVEC and HT29 cells treated with different peptides as mention in Fig. 2A, B.
(§4) The affinity ability of peptide QR-KLU to endothelial cells was determined by fluorescence-activated cell sorting (FACS) analysis. Briefly, the HUVEC cells were incubated on a 24-well plate for 24 h in growth medium. Then peptide QR-KLU in medium with different concentrations (0 μM, 2.5 μM, 5 μM, 10 μM, 20 μM) were respectively incubated with HUVEC cells for 30 min at 37 °C. Next, carboxy-fluorescein (FAM)-labelled-QR peptide (10 μM) were added to each well for 4 h at 37 °C. […] FACS was performed and the results were analyzed using FlowJo.

[3] = Therapeutic safety in VX2 tumor-bearing rabbits (organ H&E, serum biochemistry)
Procedure: Twenty-four VX2 tumor-burdened rabbits were evenly divided into four groups. After fasting for 12 h, the rabbits were anesthetized by intravenous injection of pentobarbital sodium solution (2 wt.%, 30 mg/kg). The rabbit’s right femoral artery was dissected and a 4-F Cobra catheter (Cook, Inc., Bloomington, Indiana) was inserted into the celiac artery, hepatic arteriography was then performed under the guidance of digital subtraction angiography (DSA), and a 2.7-F coaxial microcatheter (Terumo, Tokyo, Japan) was super-selectively inserted into the tumor donor branch subsequently. The emulsion of drugs and lipiodol were slowly injected into the tumor-feeding artery through the above microcatheter at a speed of 0.5 mL/min. […] After obtaining all DSA images, the sheaths and catheters were removed.
Seven days after treatment, the liver tumors, hearts, lungs, kidneys and spleens were harvested and fixed in 4% phosphate-buffered paraformaldehyde, the specimens were embedded in paraffin blocks and cut into 5‐μm‐thick sections. Following the manufacturer’s guidelines, the sections were stained with haematoxylin and eosin (H&E) for the evaluation of organ toxicity and tumor necrosis, Ki-67 staining and transfer-mediated dUTP nick end labeling (TUNEL) technique were used to detect tumor proliferation and apoptosis, respectively.
Blood samples were collected before treatment and at 1, 3, 7 days after treatment. The blood samples were stood at room temperature for 30 min, and the serum was obtained by centrifugation (room temperature, 8000 rpm, 10 min) for assessment of alanine aminotransferase (ALT), aspartate aminotransferase (AST), total bilirubin (TBIL) and creatinine (CREA). The assays were performed using the commercially ready-made kits following the manufacturers’ instructions.

[4] = test system: HUVEC cells; experiment: Annexin V-FITC/PI cell apoptosis assay, HUVEC; assay type: cell-based, human; conditions: 10 μM, 24 h, Annexin V-PI FACS
Procedure: The improved proapoptotic activity of QR-KLU was further confirmed by Annexin V-PI staining through FACS. Viable cells, early apoptotic cells, necrotic cells, late apoptotic cells were represented by Q4, Q3, Q2 and Q1 respectively. […] Besides, QR-KLU induced cell apoptosis in a dose-dependent manner. […] The percentage of apoptotic cells in KLU peptide at 20 μM were about 25% in both Huh7 cells and HUVEC cells.
as §1
Supplementary Figure S2. Cell apoptosis of HUVEC induced by different peptides. HUVEC cells were treated with PBS, 80μM QR, 20μM KLU, 5μM QR-KLU, 10μM QR-KLU for 24 hours before detection by FACS.

[5] = test system: HT29 cells with low expression of VEGFR; experiment: Cell competitive binding (cell affinity) assay by FACS, HT29; assay type: cell-based, human; conditions: QR-KLU 0-20 μM with 10 μM FAM-QR
Procedure: as §2, §3, §4

[6] = test system: VX2 liver tumor; experiment: VX2 rabbit liver tumor model with TAE/TACE: tumor growth, necrosis, apoptosis, proliferation, angiogenesis; assay type: in vivo, New Zealand white rabbits
Procedure: New Zealand white rabbits (2.5-3 kg) were purchased from the Laboratory Animal Center of Tongji Medical College of Huazhong University of Science and Technology (Wuhan, China). All the animal experimental procedures were performed in accordance with the National Institutes of Health Guidelines for the Care and Use of Laboratory Animals and the protocol was approved by the Ethics Committee of Tongji Medical College, Huazhong University of Science and Technology. Blinding was not possible in most animal experiments. The rabbit VX2 liver tumor model was established according to the method reported by Qian K et al.. […] The acquisition parameters of the sequence are as follows: […], TR 2750 ms, TE 65 ms, the field of view 120 mm × 120 mm, Slice thickness 3 mm in the transverse plane, matrix 152 × 152. The multi-vane technique was used to reduce artifacts and improve image quality, acquisition time 3 min […]; […] Seven days after TACE procedure, tumor size was evaluated again by MR scan and the tumor volume was calculated by formula: V = a * b^2/2 (a, long diameter; b, short diameter). And tumor growth rate was calculated by formula: […] Finally, the VX2 rabbits were sacrificed and the tumor tissues were harvested for biochemical analysis and histopathological examination. […] The IHC staining procedures were performed as previously described. Briefly, the sections were blocked in 3% H2O2 for 25 min and then incubated with goat serum for 15 min. Subsequently, the sections were first washed and incubated with anti-VEGF (1:200, Abcam, USA), and anti-CD31 (1:20; Abcam, USA) overnight at 4 °C, and then incubated with second antibody (Abcam, USA) at 37 °C for 50 min. Next, the sections were stained with 3, 3'-diaminobenzidine (DAB, Service bio, Wuhan […] Biotechnology Co., Ltd., China) for 6 min and rinsed and stained in hematoxylin for 30 s. The sections were then dehydrated in gradient alcohol and sealed in neutral resins. VEGF expression was assessed by semiquantitative IHC based on staining intensity and density, the staining intensity was scored as 0 (negative), 1 (weak), 2 (moderate), and 3 (strong), while the staining density was scored on the basis of the percentage of positively stained cells: 0 (0%), 1 (1-25%), 2 (26-50%), 3 (51-75%), and 4 (76-100%). The total VEGF IHC score was calculated by multiplying the intensity score by the density score. Microvessel density (MVD) was calculated according to the method developed by Weidner et al.

[7] = test system: HUVEC cells; experiment: Wound-healing assay of HUVEC cells; assay type: cell-based, human; conditions: 10 μM, 24 h
Procedure: Wound-healing assay was performed according to the protocols reported by Liang et al.. Briefly, HUVEC cells were plated into 12-well plate and grown to create a confluent monolayer. The monolayer was grazed in a straight line to create a “scratch” with a pipette tip. Markings were created close to the scratch to be used as reference points. Then cells were treated with different peptides for 24 h at 37 °C. Images were collected with a Leica DFC480 camera on a phase-contrast microscope equipped with a 10 × objective at room temperature. The free area of the wound was measured by image software. Supplementary Figure S1. Wound healing assay to detect the cell migration influenced by different peptides.

[8] = 7 days after treatment, versus NS group

## CC(=O)N[C@@H](CCC(N)=O)C(=O)N[C@@H](CCCCN)C(=O)N[C@@H](CCCNC(=N)N)C(=O)N[C@@H](CCCCN)C(=O)N[C@@H](CCCNC(=N)N)C(=O)N[C@@H](CCCCN)C(=O)N[C@@H](CCCCN)C(=O)N[C@@H](CO)C(=O)N[C@@H](CCCNC(=N)N)C(=O)N[C@@H](Cc1ccc(O)cc1)C(=O)N[C@@H](CCCCN)C(=O)N[C@@H](CO)C(=O)NCCCCCC(=O)N[C@@H](CCCCN)C(=O)N[C@@H](CC(C)C)C(=O)NC(C)(C)C(=O)N[C@@H](CCCCN)C(=O)N[C@@H](CC(C)C)C(=O)NC(C)(C)C(=O)N[C@@H](CCCCN)C(=O)N[C@@H](CCCCN)C(=O)N[C@@H](CC(C)C)C(=O)NC(C)(C)C(=O)N[C@@H](CCCCN)C(=O)N[C@@H](CC(C)C)C(=O)NC(C)(C)C(=O)N[C@@H](CCCCN)C(N)=O [QR-KLU] (Ac-QKRKRKKSRYKS[Ahx]KL[Aib]KL[Aib]KKL[Aib]KL[Aib]K-NH2; N-terminus and C-terminus assumed)
[1]
  apoptosis rate in Huh 7 cells: over 60%
[2]
  effect of QR-KLU on cell penetration of FAM-labeled peptide QR in HUVEC: decreased cell penetration ability
[3]; 7 days after TACE, 4 mg/kg in lipiodol
  H&E staining of hearts, lungs, kidneys and spleens: no apparent tissue injury
[3]; before and 1, 3, 7 days after treatment, 4 mg/kg in lipiodol via TAE
  liver and renal toxicity (ALT, AST, TBIL, CREA in serum): no significant liver or renal toxicity
[4]
  apoptosis rate in HUVEC cells: over 40%
[5]
  effect of QR-KLU on cell penetration of FAM-labeled peptide QR in HT29: could not obviously affect cell penetration ability
[6]; 0.5 mL lipiodol emulsion into tumor-feeding artery, DOX 2 mg/kg, KLU 4 mg/kg, QR-KLU 4 mg/kg, MR images, 24 rabbits evenly in four groups, mean ± SD
  mean tumor volume at 7 days after TAE procedure: 1008.5 ± 370.7 mm^3
[6]; 7 days after TAE, DOX 2 mg/kg, KLU 4 mg/kg, QR-KLU 4 mg/kg in lipiodol, NS group 276.4%
  tumor growth rate (V7/V0 × 100%): significantly lower than that of the NS group; also recorded: significantly lower than the other three groups
[6]; 7 days after embolization, IHC intensity × density score, compared with NS group
  VEGF IHC score in tumor: significantly reduced the expression of CD31 and VEGF
[6]; 7 days after embolization, mean of three ×200 fields, compared with NS group
  microvessel density (MVD), CD31 IHC: reduce the MVD in the tumor
[6]; [8]
  mean proportion of apoptotic cells in tumor (TUNEL): significantly higher than that in NS group; also recorded: highest
  mean proportion of proliferating cells in tumor (Ki67): significantly lower than that in NS group; also recorded: lowest
[6]; baseline, MR images, V = a*b^2/2, VX2 rabbits, 24 rabbits evenly in four groups, mean ± SD
  mean tumor volume one day before TAE procedure: 899.7 ± 394.0 mm^3
[7]
  cell migration of HUVEC (wound epithelial gap): the wound epithelial gap was unchanged or even bigger
